Source: US8178523B2, “Compounds for the treatment of hepatitis C” (Bristol-Myers Squibb Company, priority 2008, dated 2012)

Columns and labels:
[1] = system: HCV replicon cells; test: HCV replicon FRET / luciferase assay; type: cell-based; settings: Hepatitis C virus, 50% reduction in FRET or luciferase activity
Description: FRET Assay Preparation. The HCV FRET screening assay was performed in 96-well cell culture plates. The FRET peptide (Anaspec, Inc.) (Taliani et al., Anal. Biochem. 1996, 240, 60-67) contains a fluorescence donor, EDANS, near one end of the peptide and an acceptor, DABCYL, near the other end. The fluorescence of the peptide is quenched by […] resonance energy transfer (RET) between the donor and the acceptor, but as the NS3 protease cleaves the peptide the products are released from RET quenching and the fluorescence of the donor becomes apparent. The assay reagent was made as follows: 5× cell Luciferase cell culture lysis reagent from Promega (#E153A) diluted to 1× with dH2O, NaCl added to 150 mM final, the FRET peptide diluted to 20 μM final from a 2 mM stock.
To prepare plates, HCV replicon cells, with or without a Renilla luciferase reporter gene, were trypsinized and plated in a 96-well plate with titrated test compounds added in columns 3 through 12; columns 1 and 2 contained a control compound (HCV control inhibitor), and the bottom row contained cells with DMSO only. The plates were then placed in a CO2 incubator at 37° C.
Assays. Subsequent to addition of the test compounds described above (FRET Assay Preparation), at various times the plate was removed and Alamar blue solution (Trek Diagnostics, #00-100) was added to measure cellular toxicity. After reading in a Cytoflour 4000 instrument (PE Biosystems), plates were rinsed with PBS and then used for FRET assay by the addition of 30 ul of the FRET peptide assay reagent described above (FRET Assay Preparation) per well. The plate was then placed into the Cytoflour 4000 instrument which had been set to 340 excite/490 emission, automatic mode for up to 20 cycles and the plate read in a kinetic mode. Typically, the signal to noise using an endpoint analysis after the reads was at least three-fold. Alternatively, after Alamar blue reading, plates were rinsed with PBS, then used for luciferase assay using the Promega Dual-Glo Luciferase Assay System or the Promega EnduRen Live Cell Substrate assay.
Compound analysis was performed by quantification of the relative HCV replicon inhibition and the relative cytotoxicity values. To calculate cytoxicity values, the average Alamar Blue fluorescence signals from the control wells were set as 100% non-toxic. The individual signals in each of the compound test wells were then divided by the average control signal and multiplied by 100% to determine […]. To calculate the HCV replicon inhibition values, an average background value was obtained from the two wells containing the highest amount of HCV control inhibitor at the end of the assay period. These numbers were similar to those obtained from naïve Huh-7 cells. The background numbers were then subtracted from the average signal obtained from the control wells and this number was used as 100% activity. The individual signals in each of the compound test wells were then divided by the averaged control values after background subtraction and multiplied by 100% to determine percent activity. EC50 values were calculated as the concentration which caused a 50% reduction in FRET or luciferase activity. The two numbers generated for the compound plate, percent cytoxicity and percent activity, were used to determine compounds of interest for further analysis.

[2] = target: T1, HCV NS5B RdRp (Hepatitis C virus genotype 1b, UniProt Q9WMX2); test: HCV NS5B RdRp enzyme assay; type: biochemical; settings: HCV NS5B genotype 1b, standard or modified RdRp assay not given
T1 construct: The protein was expressed with an 18 amino acid C-terminal truncation to enhance the solubility; made in house; host or cells: E. coli BL21(DE3)
T1 sequence (Q9WMX2 2420-2992): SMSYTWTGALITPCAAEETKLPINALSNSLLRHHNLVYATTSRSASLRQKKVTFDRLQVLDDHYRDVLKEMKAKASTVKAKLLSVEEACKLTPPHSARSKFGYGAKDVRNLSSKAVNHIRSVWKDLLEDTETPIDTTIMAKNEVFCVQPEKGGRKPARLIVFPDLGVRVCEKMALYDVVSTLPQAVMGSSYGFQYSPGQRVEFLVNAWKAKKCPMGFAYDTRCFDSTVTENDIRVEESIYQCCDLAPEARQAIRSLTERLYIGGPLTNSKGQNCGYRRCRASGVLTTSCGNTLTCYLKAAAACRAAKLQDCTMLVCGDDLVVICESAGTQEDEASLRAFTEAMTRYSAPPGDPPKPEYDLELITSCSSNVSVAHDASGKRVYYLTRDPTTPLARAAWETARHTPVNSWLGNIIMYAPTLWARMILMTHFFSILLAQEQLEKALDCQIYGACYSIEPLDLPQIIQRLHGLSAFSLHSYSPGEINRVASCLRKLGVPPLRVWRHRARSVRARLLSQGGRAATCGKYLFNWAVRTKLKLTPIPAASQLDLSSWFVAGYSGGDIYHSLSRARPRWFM
Description: HCV NS5B RdRp cloning, expression, and purification. The cDNA encoding the NS5B protein of HCV, genotype 1b, was cloned into the pET21a expression vector. The protein was expressed with an 18 amino acid C-terminal truncation to enhance the solubility. The E. coli competent cell line BL21(DE3) was used for expression of the protein. Cultures were grown at 37° C. for ˜4 hours until the cultures reached an optical density of 2.0 at 600 nm. The cultures were cooled to 20° C. and induced with 1 mM […]. Fresh ampicillin was added to a final concentration of 50 μg/ml and the cells were grown overnight at 20° C.
Cell pellets (3 L) were lysed for purification to yield 15-24 mgs of purified NS5B. The lysis buffer consisted of 20 mM Tris-HCl, pH 7.4, 500 mM NaCl, 0.5% triton X-100, 1 mM DTT, 1 mM EDTA, 20% glycerol, 0.5 mg/ml lysozyme, 10 mM MgCl2, 15 ug/ml deoxyribonuclease I, and Complete TM protease inhibitor tablets (Roche). After addition of the lysis buffer, frozen cell pellets were resuspended using a tissue homogenizer. To reduce the viscosity of the sample, aliquots of the lysate were sonicated on ice using a microtip attached to a Branson sonicator. The sonicated lysate was centrifuged at 100,000×g for 1 hr at 4° C. and filtered through a 0.2 μm filter unit (Corning).
The protein was purified using two sequential chromatography steps: Heparin sepharose CL-6B and polyU sepharose 4B (Pharmacia). The chromatography buffers were identical to the lysis buffer but contained no lysozyme, deoxyribonuclease I, MgCl2 or protease inhibitor and the NaCl concentration of the buffer was adjusted according to the requirements for charging the protein onto the column. Each column was eluted with a NaCl gradient which varied in length from 5-50 column volumes depending on the column type. After the final chromatography step, the resulting purity of the enzyme is >90% based on SDS-PAGE analysis. The enzyme was aliquoted and stored at −80° C.
Standard HCV NS5B RdRp enzyme assay. HCV RdRp genotype 1b assays were run in a final volume of 60 μl in 96 well plates (Corning 3600). The assay buffer is composed of 20 mM Hepes, pH 7.5, 2.5 mM KCl, 2.5 mM MgCl2, 1 mM DTT, 1.6 U RNAse inhibitor (Promega N2515), 0.01 mg/ml BSA (Sigma B6917), and 2% glycerol. All compounds were serially diluted (3-fold) in DMSO and diluted further in water such that the final concentration of DMSO in the assay was 2%. HCV RdRp genotype 1b enzyme was used at a final concentration of 28 nM. A polyA template was used at 6 nM, and a biotinylated oligo-dT12 primer was used at 180 nM final concentration. Template was obtained commercially (Amersham 27-4110). Biotinylated primer was prepared by Sigma Genosys. 3H-UTP was used at (0.29 μM total UTP). Reactions were initiated by the addition of enzyme, incubated at 30° C. for 60 min, and stopped by adding 25 μl of 50 mM EDTA containing SPA beads (4 μg/μl, Amersham RPNQ 0007). Plates were read on a Packard Top Count NXT after >1 hr incubation at room temperature.
Modified HCV NS5B RdRp enzyme assay. A modified enzyme assay was performed essentially as described for the standard enzyme assay except for the following: The biotinylated oligo dT12 primer was precaptured on streptavidin-coated SPA beads by mixing primer and beads in assay buffer and incubating at room temperature for one hour. Unbound primer was removed after centrifugation. The primer-bound beads were resuspended in 20 mM Hepes buffer, pH 7.5 and used in the assay at final concentrations of 20 nM primer and […] beads. Order of addition in the assay: enzyme (1.75 nM) was added to diluted compound followed by the addition of a mixture of template (0.36 nM), 3H-UTP (0.6 μCi, 0.29 μM), and primer-bound beads, to initiate the reaction; concentrations given are final. Reactions were allowed to proceed for 4 hours at 30° C.
IC50 values for compounds were determined using seven different [I]. […]

Row | Compound | EC50 ([1]; class symbols) [nM] | IC50 ([2]; class symbols) [nM] | EC50 ([1]; numeric values) [nM] | IC50 ([2]; numeric values) [nM]
1 | COc1ccc2c(c1)C1CC1(C(=O)N1CCCCC1c1nc(C(C)C)no1)Cn1c-2c(C2CCCCC2)c2ccc(C(=O)NS(=O)(=O)N(C)C)cc21 (stereo not drawn) | 2 to 500 | 2 to 500 |  | 
2 | COc1ccc2c(c1)C1CC1(C(=O)N1CCC(c3nc(C)no3)CC1)Cn1c-2c(C2CCCCC2)c2ccc(C(=O)NS(=O)(=O)N(C)C)cc21 (stereo not drawn) |  |  | 90 | 30
3 | COc1ccc2c(c1)C1CC1(C(=O)N1CCC(c3nc(C)no3)CC1)Cn1c-2c(C2CCCCC2)c2ccc(C(=O)NS(=O)(=O)C(C)C)cc21 (stereo not drawn) |  |  | 100 | 30
